We go through 20 molecules from ChEMBL document CHEMBL3297706, “Design, synthesis and evaluation of phenethylaminoheterocycles as K(v)1.5 inhibitors” (Bioorg Med Chem Lett, 2014).

Series [1] has as its target T1, Potassium voltage-gated channel subfamily A member 5 (Homo sapiens, UniProt P22460). As to the kind of experiment: Inhibition of human Kv1.5 expressed in mouse L929 cells assessed as inhibition of current at 0.3 uM. Format: cell-based.
The nature of series [2]: Permeability across apical to basolateral side in human Caco2 cells. Type of series: ADME, cell-based. As to conditions: Caco-2, read-out: permeability.
Series [3] deals with T1, Potassium voltage-gated channel subfamily A member 5. As to the kind of experiment: Inhibition of human Kv1.5 expressed in mouse L929 cells assessed as inhibition of current. Type of series: cell-based.
The nature of series [4]: Half life in Sprague-Dawley rat at 10 umol/kg, via carotid artery by LC-MS method. Format: ADME, organism-based. As to conditions: in vivo.
A further series addresses hERG (KCNH2) (Homo sapiens, UniProt Q12809). As to the kind of experiment: Inhibition of human ERG at 10 uM.
Series [5] is described as follows: Volume of distribution at steady state in Sprague-Dawley rat at 10 umol/kg, via carotid artery by LC-MS method. Type of series: ADME, organism-based. As to conditions: in vivo, read-out: Vdss.
Series [6] is described as follows: Permeability of the compound by PAMPA. Format: ADME. Conditions: read-out: permeability. On the technique in general: PAMPA measures passive passage across an artificial lipid membrane.
Series [7] in a line: Clearance in Sprague-Dawley rat at 10 umol/kg, via carotid artery by LC-MS method. Type of series: ADME, organism-based. As to conditions: in vivo.
In series [8] the test system is Oryctolagus cuniculus. The experiment in a line: Anti-atrial fibrillation in rabbit assessed as decrease in blood pressure at 3 mg/kg. Type of series: functional.
Series [9] deals with Oryctolagus cuniculus. As to the kind of experiment: Anti-atrial fibrillation in rabbit assessed as ventricular effective refractory period prolongation at 10 mg/kg. Type of series: functional.
Series [10] relates to Oryctolagus cuniculus. The experiment in a line: Anti-atrial fibrillation in rabbit assessed as atrial effective refractory period prolongation at 1 mg/kg. Type of series: functional, Cardiac atrium.
In series [11] the test system is Oryctolagus cuniculus. The experiment in a line: Anti-atrial fibrillation in rabbit assessed as atrial effective refractory period prolongation at 3 mg/kg. Type of series: functional, Cardiac atrium.
For series [12], the system named is Plasma. As to the kind of experiment: Plasma concentration in rabbit at 1 mg/kg. Details: dose 1 mg/kg. Conditions: in vivo. Format: ADME, organism-based, Oryctolagus cuniculus.
The nature of series [13]: Plasma protein binding in rabbit. Type of series: ADME, cell-free, Oryctolagus cuniculus. Conditions: read-out: PPB (converted).
The test system of series [14] is Oryctolagus cuniculus. The experiment in a line: Anti-atrial fibrillation in rabbit assessed as increase in heart rate at 3 mg/kg. Format: functional.
For series [15], the species on record is Oryctolagus cuniculus. As to the kind of experiment: Anti-atrial fibrillation in rabbit assessed as atrial effective refractory period prolongation. Type of series: functional, organism-based. Conditions: Cardiac atrium.
Series [16] relates to Oryctolagus cuniculus. The experiment in a line: Anti-atrial fibrillation in rabbit assessed as decrease in blood pressure at 1 mg/kg. Format: functional.
The test system of series [17] is Oryctolagus cuniculus. The experiment in a line: Anti-atrial fibrillation in rabbit assessed as increase in heart rate at 1 mg/kg. Format: functional.
Series [18] deals with Plasma. The experiment in a line: Plasma concentration in rabbit at 3 mg/kg. As to conditions: in vivo. Details: dose 3 mg/kg. Type of series: ADME, organism-based, Oryctolagus cuniculus.
The test system of series [19] is Plasma. As to the kind of experiment: Plasma concentration in rabbit at 10 mg/kg. As to conditions: in vivo. Also on record: dose 10 mg/kg. Format: ADME, organism-based, Oryctolagus cuniculus.
For series [20], the system named is Oryctolagus cuniculus. As to the kind of experiment: Anti-atrial fibrillation in rabbit assessed as atrial effective refractory period prolongation at 10 mg/kg. Format: functional, Cardiac atrium.

Active and inactive are the calls of the source. No cut-off for these calls is given here.

T1 sequence (P22460 whole entry): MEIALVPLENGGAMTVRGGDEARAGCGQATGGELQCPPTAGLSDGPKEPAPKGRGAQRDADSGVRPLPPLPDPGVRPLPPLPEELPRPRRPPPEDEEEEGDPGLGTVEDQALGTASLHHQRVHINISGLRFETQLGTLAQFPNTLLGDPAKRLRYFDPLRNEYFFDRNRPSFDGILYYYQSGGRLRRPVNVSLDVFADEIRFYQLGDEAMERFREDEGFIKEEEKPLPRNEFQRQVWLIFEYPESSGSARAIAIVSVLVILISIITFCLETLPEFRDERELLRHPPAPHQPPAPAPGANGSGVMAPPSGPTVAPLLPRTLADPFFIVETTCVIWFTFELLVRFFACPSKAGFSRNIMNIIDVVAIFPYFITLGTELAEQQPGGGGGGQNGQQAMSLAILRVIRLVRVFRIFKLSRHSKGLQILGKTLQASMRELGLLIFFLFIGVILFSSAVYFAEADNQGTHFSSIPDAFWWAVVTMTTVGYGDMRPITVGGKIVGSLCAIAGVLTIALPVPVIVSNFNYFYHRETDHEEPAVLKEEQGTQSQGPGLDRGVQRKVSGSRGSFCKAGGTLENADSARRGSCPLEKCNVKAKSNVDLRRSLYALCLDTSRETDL
hERG (KCNH2), sequence (Q12809 whole entry): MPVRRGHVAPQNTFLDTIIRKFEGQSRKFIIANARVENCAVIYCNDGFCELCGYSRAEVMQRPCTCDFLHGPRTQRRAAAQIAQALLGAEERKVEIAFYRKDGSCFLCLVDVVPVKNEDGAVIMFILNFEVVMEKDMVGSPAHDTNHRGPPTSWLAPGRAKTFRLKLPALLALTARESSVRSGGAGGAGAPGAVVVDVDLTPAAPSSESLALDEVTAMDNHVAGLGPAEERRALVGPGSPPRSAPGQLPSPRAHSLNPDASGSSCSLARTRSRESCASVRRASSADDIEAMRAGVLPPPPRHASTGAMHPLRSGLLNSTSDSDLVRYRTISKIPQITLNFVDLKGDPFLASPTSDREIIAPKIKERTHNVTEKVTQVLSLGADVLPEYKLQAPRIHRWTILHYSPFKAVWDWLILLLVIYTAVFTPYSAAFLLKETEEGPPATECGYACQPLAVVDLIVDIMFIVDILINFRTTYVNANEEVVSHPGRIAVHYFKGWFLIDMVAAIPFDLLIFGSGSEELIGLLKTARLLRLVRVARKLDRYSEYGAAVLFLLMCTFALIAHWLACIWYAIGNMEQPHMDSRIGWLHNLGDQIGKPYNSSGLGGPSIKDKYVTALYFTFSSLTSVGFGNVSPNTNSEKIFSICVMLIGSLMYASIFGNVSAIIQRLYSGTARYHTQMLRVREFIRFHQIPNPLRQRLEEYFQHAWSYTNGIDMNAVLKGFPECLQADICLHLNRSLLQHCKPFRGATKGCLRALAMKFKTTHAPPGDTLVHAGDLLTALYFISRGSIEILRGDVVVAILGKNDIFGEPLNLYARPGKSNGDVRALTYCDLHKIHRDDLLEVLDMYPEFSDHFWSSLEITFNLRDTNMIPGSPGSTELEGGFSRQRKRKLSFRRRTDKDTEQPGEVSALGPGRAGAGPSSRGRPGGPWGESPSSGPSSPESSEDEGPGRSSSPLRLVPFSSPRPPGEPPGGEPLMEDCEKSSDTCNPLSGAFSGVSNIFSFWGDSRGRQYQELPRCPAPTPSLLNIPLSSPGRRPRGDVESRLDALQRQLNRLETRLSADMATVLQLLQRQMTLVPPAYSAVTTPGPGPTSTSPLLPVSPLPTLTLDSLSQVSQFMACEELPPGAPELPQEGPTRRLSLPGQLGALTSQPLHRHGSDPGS

As a reminder, the inhibition is the change of the read-out against control, counted positive when it falls. Turning to `COc1cccc2[nH]nc(NCC(C)(C)c3ccccc3)c12`, in series [1], the inhibition stood at 37%. Further, the Papp A→B in series [2] came out at 9.4 ×10⁻⁶ cm/s.

For orientation: IC50 means the concentration that gives 50% inhibition. Turning to `CCc1cccc2onc(NCC(C)(C)c3ccccc3)c12`, the IC50 in series [3] is 219 nM.

Usually half-life stands for the time in which the quantity being followed falls by half. A lower half-life goes with rapid decline. The term clearance denotes the volume of plasma or blood freed of the substance per unit of time. Molecule `COc1cccc2oc(=O)nc(NCC(C)(C)c3ccccc3)c12` had a half-life in series [4] of 0.8 h. On hERG (KCNH2), the inhibition at 10 µM stood at 66%. The IC50 in [3] was 197 nM. Besides, the Vd in series [5] was found to be 0.7 L/kg. Further, the Papp in series [6] worked out at 69.5 ×10⁻⁶ cm/s. In series [7], this molecule displayed a clearance of 10 mL/min/kg.

For the molecule `CC(C)(CNc1noc2cccc(Cl)c12)c1ccccc1`, the inhibition in series [1] came out at 33%.

As to `COc1ccc2onc(NCC(C)(C)c3ccccc3)c2c1`, the inhibition in [1] was determined as 37%.

The molecule `CCNC(=O)O[C@H]1CC[C@](CNc2nn(C)c3cccc(OC)c23)(c2ccccc2)CC1` had a half-life in series [4] of 1.4 h. The molecule also displayed an inhibition at 10 µM against hERG (KCNH2) of 54%. Besides, the concentration for half-maximal inhibition (IC50) in series [3] is 88 nM. Further, the Vd in [5] stood at 0.6 L/kg. Besides, the clearance in [7] was found to be 8 mL/min/kg.

`COc1cccc2nc(Cl)nc(NCC(C)(C)c3ccccc3)c12`: the inhibition at 10 µM against hERG (KCNH2) was determined as 90%. Also, the IC50 in series [3] was found to be 73 nM.

`COc1cccc2snc(NCC(C)(C)c3ccccc3)c12` showed a half-life in series [4] of 1.8 h. The molecule further displayed an inhibition at 10 µM at hERG (KCNH2) of 68%. Also, in series [3], the IC50 stood at 25 nM. The Vd in series [5] came out at 3.9 L/kg. The same molecule had a clearance in series [7] of 28 mL/min/kg.

What is called inhibition in vivo is how much of the control response was suppressed. Turning to `CCNC(=O)O[C@H]1CC[C@](CNc2n[nH]c3cccc(OC)c23)(c2ccccc2)CC1`, the inhibition in vivo at 3 mg/kg with Oryctolagus cuniculus [8] was 17%. This molecule gave a half-life in series [4] of 1.3 h. For the same molecule, the outcome in the series on Oryctolagus cuniculus [9] was inactive. The molecule also came in with an inhibition at 10 µM at hERG (KCNH2) of 52%. Moreover, the Activity was 15% with Oryctolagus cuniculus [10]; 22% in the series with Oryctolagus cuniculus [11]; 16% in the series with Oryctolagus cuniculus [14]; “Dose-dependent effect” in the series listed under Oryctolagus cuniculus [15]; 5% in the series with Oryctolagus cuniculus [17]. Further, the half-inhibitory concentration (IC50) in [3] was 138 nM. Moreover, the Vd in series [5] was determined as 1.4 L/kg. In addition, the Papp in series [6] was 67 ×10⁻⁶ cm/s. In addition, the concentration in the series with Plasma [12] was 700 nM; in the series with Plasma [18], 2400 nM. In series [13], the fraction unbound was 0.003. In series [7], this molecule had a clearance of 21 mL/min/kg. Also, the inhibition in vivo at 1 mg/kg with Oryctolagus cuniculus [16] came to 7%.

Turning to `COc1cccc2ncnc(NCC(C)(C)c3ccccc3)c12`, on hERG (KCNH2), at 10 µM the inhibition was 90%. Besides, the 50% inhibitory concentration (IC50) in series [3] stood at 118 nM.

For the molecule `COc1cccc2c1c(NCC(C)(C)c1ccccc1)nn2C(C)C`, the inhibition in [1] worked out at 42%.

Take `COc1cccc2onc(N(C)CC(C)(C)c3ccccc3)c12`: in series [3], the concentration for half-maximal inhibition (IC50) came out at 187 nM.

On to `CC(C)(CNc1noc2ccccc12)c1ccccc1`, for which the 50% inhibitory concentration (IC50) in series [3] was 784 nM. Also, in series [2], the Papp A→B came out at 11.6 ×10⁻⁶ cm/s.

On to `COc1cccc2nc(O)nc(NCC(C)(C)c3ccccc3)c12`, for which the inhibition at 10 µM against hERG (KCNH2) is 50%. In addition, the IC50 in series [3] was determined as 23 nM. For the same molecule, the Papp in series [6] was 81.6 ×10⁻⁶ cm/s.

Consider `COc1cccc2c1c(NCC(C)(C)c1ccccc1)nn2C`, for which the half-life in series [4] is 2.1 h. On hERG (KCNH2), this molecule displayed an inhibition at 10 µM of 69%. Moreover, in the series with Oryctolagus cuniculus [10], the Activity is on record as 6%. For the same molecule, the IC50 in series [3] was 198 nM. Also, in series [5], the Vd amounted to 1.7 L/kg. Besides, in the series on Plasma [12], the concentration came out at 300 nM. Moreover, the Papp A→B in series [2] turned out to be 2.3 ×10⁻⁶ cm/s. Moreover, in [13], the fraction unbound was less than 0.001. The clearance in series [7] is 12 mL/min/kg.

With `CC(C)(CNc1noc2cccc(O)c12)c1ccccc1`, the IC50 in series [3] is 262 nM.

As for `COc1ccc2c(NCC(C)(C)c3ccccc3)noc2c1`, in series [1], the inhibition is 21%. For the same molecule, in [2], the Papp A→B was 3.6 ×10⁻⁶ cm/s.

As to `COc1cccc2onc(NCC(C)(C)c3ccccc3)c12`, the half-life in series [4] is 2.4 h. The molecule also returned a concentration in the series on Plasma [19] of 8200 nM. Moreover, the Activity with Oryctolagus cuniculus [20] and in the series on Oryctolagus cuniculus [9] was less than 5% in each case. In addition, the half-inhibitory concentration (IC50) in [3] stood at 43 nM. The Vd in series [5] is 3.7 L/kg. The fraction unbound in series [13] is less than 0.001. This molecule also gave a clearance in series [7] of 22 mL/min/kg.

With `COc1cccc2c1C(NCC(C)(C)c1ccccc1)=NC2=O`, the half-life in series [4] is 0.8 h. Moreover, on hERG (KCNH2), 10 µM produced 46% inhibition. In series [3], the IC50 worked out at 84 nM. Besides, in series [5], the Vd turned out to be 1.1 L/kg. The Papp in [6] is 79 ×10⁻⁶ cm/s. In addition, in series [2], the Papp A→B was determined as 27 ×10⁻⁶ cm/s. Besides, the clearance in series [7] turned out to be 35 mL/min/kg.

In [4], `COc1cccc2ccnc(NCC(C)(C)c3ccccc3)c12` showed a half-life of 1.8 h. The molecule also showed an inhibition at 10 µM at hERG (KCNH2) of 99%. Also, the IC50 in series [3] is 22 nM. Also, the Vd in series [5] amounted to 14 L/kg. The clearance in series [7] turned out to be 124 mL/min/kg.
